From article PMC5443055 (Human Vaccines & Immunotherapeutics, 2014)

Test system: splenocytes of immunized HLA DR3 tg mice
Experiment: Th1/Th2/Th17 cytokine bead array
Assay type: cell-based, mouse (HLA DR3 transgenic)
Details: ConA 2 μg/mL, positive control, consistent between arms

## Concanavalin A [ConA]
Highest of panel
  IFNγ concentration above background: 260 pg/mL
Lowest of panel
  IL-4 concentration above background: 16 pg/mL
